Test results taken from US20040029843A1, “Rapidly disintegrating formulations for treating or preventing mucositis” (OraPharma, Inc., priority 2002, published 2004).
Structures can show the parent of a compound that is named as a salt.

Tested on: mucositis induced by acute radiation exposure of the cheek pouch
Assay: Hamster cheek pouch model of radiation-induced oral mucositis, clinical scoring 0-5
Type: in vivo, Hamsters
Conditions: 0.1 ml of 0.1 mg/ml aqueous solution topically three times a day for 22 days; for reduction in the number of animal days with scores of 3 or more relative to the control group: 35 Gy on day 0; for mucositis scores versus placebo control group: 35 Gy on day 0, visual score 0-5
Experimental: Hamsters were randomly assigned to treatment groups with eight (8) animals per group. Each group was treated either with a drug solution or a control, water.
Animals were dosed three times a day for 22 days. The first dose was applied on day -1. Either a solution of the drug or water alone was applied in a volume of 0.1 ml three times per day.
Mucositis was induced by acute radiation exposure of the check pouch. A single dose of radiation (35 Gy/dose) was administered to all animals on Day 0. Prior to irradiation, animals were anesthetized with an intraperiotoneal injection of sodium pentobarbital (80 mg/kg) and the left buccal pouch was everted, fixed and isolated using a lead shield.
Beginning on day 6 and continuing every other day up to day 28, the cheek pouch was photographed. On days that photographs were taken, prior to the first dosing of the day, the animals were anesthetized using an inhalation anesthetic and the left cheek pouch of each animal was rinsed vigorously with sterile water to remove residual food debris or foreign contamination and blotted dry with a gauze sponge. The appearance of the cheek pouch was scored visually by comparison to a validated photographic scale, ranging from 0 for normal to 5 for severe ulceration (clinical scoring). In descriptive terms, this scale is defined as follows: […]
0 Pouch completely healthy. No erythema or vasodilatation
1 Light to […] erythema and vasodilatation. No erosion of mucosa
2 Severe erythema and vasodilatation. Erosion of superficial aspects of mucosa leaving denuded areas. Decreased stippling of mucosa
3 Formation of off-white ulcers in one or more places. Ulcers may have a yellow/gray color due to pseudomembrane formation. Cumulative size of ulcers up to ¼ of the pouch surface. Severe erythema and vasodilatation
4 Cumulative size of ulcers ¼ to ½ of the pouch surface. Loss of pliability. Severe erythema and vasodilatation
5 Virtually all of pouch is ulcerated. Loss of pliability (pouch can only partially be extracted from mouth).
A score of 1-2 represents mild stage of the disease, whereas a score of 3-5 indicates moderate to severe mucositis.

| Molecule | reduction in the number of animal days with scores of 3 or more relative to the control group | mucositis scores versus placebo control group |
| --- | --- | --- |
| CN(C)[C@@H]1C(O)=C(C(N)=O)C(=O)[C@@]2(O)C(O)=C3C(=O)c4c(O)cccc4[C@@](C)(O)[C@H]3C[C@@H]12 [tetracycline hydrochloride] | more than 75% | Significantly lower scores |
| meclocycline sulfosalicylate | more than 75% | Significantly lower scores |
